“And” between values parts separate entries of the source, which are not always exact repeats. Identical values can stand only once.
Test system: Swiss mice, Sarcoma 180 sc, mean tumor weight T/C
Assay: NCI In Vivo Anticancer Drug Screen. Data for tumor model Sarcoma 180 (subcutaneous) in Swiss mice
Settings: endpoint: mean tumor weight, higher = larger tumour
Outline: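 Transplantable tumors were established in mice, compound was given, then survival or tumor size was recorded. The treated value was divided by the vehicle-control value.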

[1] = dose: 50.0 mg/kg/injection, schedule: Q01DX007 (ip), vehicle: water

## CCN(CC)c1ccc(/C=C/c2ccnc3ccccc23)cc1
dose: 1.94 mg/kg/injection, schedule: Q01DX007 (ip), vehicle: carboxymethylcellulose (CMC)
  T/C: 77 % of control
dose: 3.88 mg/kg/injection, schedule: Q01DX007 (ip), vehicle: carboxymethylcellulose (CMC)
  T/C: 66 % of control
dose: 6.2 mg/kg/injection, schedule: Q01DX007 (ip), vehicle: other
  T/C: 63 % of control
dose: 7.5 mg/kg/injection, schedule: Q01DX007 (ip), vehicle: other
  T/C: 96 % of control
dose: 7.75 mg/kg/injection, schedule: Q01DX007 (ip), vehicle: carboxymethylcellulose (CMC)
  T/C: 40 % of control
dose: 7.75 mg/kg/injection, schedule: Q01DX007 (ip), vehicle: other
  T/C: 58 % of control
dose: 10.0 mg/kg/injection, schedule: Q01DX007 (ip), vehicle: other
  T/C: 107 % of control
dose: 10.33 mg/kg/injection, schedule: Q01DX007 (ip), vehicle: other
  T/C: 72 % of control
dose: 12.0 mg/kg/injection, schedule: Q01DX007 (ip), vehicle: other
  T/C: 110 % of control
dose: 12.31 mg/kg/injection, schedule: Q01DX007 (ip), vehicle: carboxymethylcellulose (CMC)
  T/C: 93 % of control and 110 % of control
dose: 15.5 mg/kg/injection, schedule: Q01DX007 (ip), vehicle: other
  T/C: 90 % of control
dose: 24.62 mg/kg/injection, schedule: Q01DX007 (ip), vehicle: carboxymethylcellulose (CMC)
  T/C: 59 % of control and 70 % of control
dose: 49.25 mg/kg/injection, schedule: Q01DX007 (ip), vehicle: carboxymethylcellulose (CMC)
  T/C: 53 % of control

## CNC(=O)NO
[1]
  T/C: 100 % of control
dose: 100.0 mg/kg/injection, schedule: Q01DX007 (ip), vehicle: water
  T/C: 109 % of control
dose: 200.0 mg/kg/injection, schedule: Q01DX007 (ip), vehicle: water
  T/C: 95 % of control
dose: 400.0 mg/kg/injection, schedule: Q01DX007 (ip), vehicle: water
  T/C: 60 % of control

## COC(=O)C1C(O)CCC2CN3CCc4c([nH]c5ccccc45)C3CC21 (centres undefined)
dose: 150.0 mg/kg/injection, schedule: Q01DX007 (ip), vehicle: carboxymethylcellulose (CMC)
  T/C: 72 % of control

## [N-]=[N+]=NC1(C(=O)O)CCCC1
dose: 66.0 mg/kg/injection, schedule: Q01DX007 (ip), vehicle: carboxymethylcellulose (CMC)
  T/C: 71 % of control
dose: 100.0 mg/kg/injection, schedule: Q01DX007 (ip), vehicle: carboxymethylcellulose (CMC)
  T/C: 60 % of control
dose: 225.0 mg/kg/injection, schedule: Q01DX007 (ip), vehicle: carboxymethylcellulose (CMC)
  T/C: 63 % of control

## CS(C)=O
dose: 1000.0 mg/kg/injection, schedule: Q01DX007 (ip), vehicle: other
  T/C: 71 % of control
dose: 1000.0 mg/kg/injection, schedule: Q#A X014 (ip), vehicle: other
  T/C: 91 % of control
dose: 1500.0 mg/kg/injection, schedule: Q01DX007 (ip), vehicle: other
  T/C: 84 % of control
dose: 1500.0 mg/kg/injection, schedule: Q#A X014 (ip), vehicle: other
  T/C: 99 % of control

## NC(=O)c1ccccc1Nc1ccc([N+](=O)[O-])cc1[N+](=O)[O-]
dose: 37.5 mg/kg/injection, schedule: Q01DX007 (ip), vehicle: carboxymethylcellulose (CMC)
  T/C: 92 % of control
dose: 75.0 mg/kg/injection, schedule: Q01DX007 (ip), vehicle: carboxymethylcellulose (CMC)
  T/C: 67 % of control

## Clc1[nH]nc2ccccc12
dose: 42.0 mg/kg/injection, schedule: Q#A X014 (ip), vehicle: methylcellulose (MC)
  T/C: 62 % of control and 85 % of control (2×)

## C1OC1C1CO1 (centres undefined)
dose: 4.5 mg/kg/injection, schedule: Q01DX007 (ip), vehicle: carboxymethylcellulose (CMC)
  T/C: 68 % of control
dose: 4.63 mg/kg/injection, schedule: Q01DX007 (ip), vehicle: carboxymethylcellulose (CMC)
  T/C: 99 % of control
dose: 9.0 mg/kg/injection, schedule: Q01DX007 (ip), vehicle: carboxymethylcellulose (CMC)
  T/C: 97 % of control
dose: 9.25 mg/kg/injection, schedule: Q01DX007 (ip), vehicle: carboxymethylcellulose (CMC)
  T/C: 74 % of control
dose: 13.76 mg/kg/injection, schedule: Q01DX007 (ip), vehicle: carboxymethylcellulose (CMC)
  T/C: 80 % of control
dose: 17.2 mg/kg/injection, schedule: Q01DX007 (ip), vehicle: carboxymethylcellulose (CMC)
  T/C: 107 % of control
dose: 18.0 mg/kg/injection, schedule: Q01DX007 (ip), vehicle: carboxymethylcellulose (CMC)
  T/C: 53 % of control
dose: 18.5 mg/kg/injection, schedule: Q01DX007 (ip), vehicle: carboxymethylcellulose (CMC)
  T/C: 71 % of control
dose: 22.93 mg/kg/injection, schedule: Q01DX007 (ip), vehicle: carboxymethylcellulose (CMC)
  T/C: 82 % of control
dose: 34.4 mg/kg/injection, schedule: Q01DX007 (ip), vehicle: carboxymethylcellulose (CMC)
  T/C: 80 % of control

## NNC(=O)NC(=O)NN
dose: 9.5 mg/kg/injection, schedule: Q01DX007 (ip), vehicle: carboxymethylcellulose (CMC)
  T/C: 91 % of control
dose: 19.0 mg/kg/injection, schedule: Q01DX007 (ip), vehicle: carboxymethylcellulose (CMC)
  T/C: 124 % of control
dose: 38.0 mg/kg/injection, schedule: Q01DX007 (ip), vehicle: carboxymethylcellulose (CMC)
  T/C: 111 % of control
dose: 76.0 mg/kg/injection, schedule: Q01DX007 (ip), vehicle: carboxymethylcellulose (CMC)
  T/C: 69 % of control

## O=[N+]([O-])c1cccc2nsnc12
dose: 12.5 mg/kg/injection, schedule: Q01DX007 (ip), vehicle: carboxymethylcellulose (CMC)
  T/C: 114 % of control
dose: 25.0 mg/kg/injection, schedule: Q01DX007 (ip), vehicle: carboxymethylcellulose (CMC)
  T/C: 174 % of control

## CN(C)c1ccc(/C=C\c2ccnc3ccccc23)cc1
dose: 12.5 mg/kg/injection, schedule: Q01DX007 (ip), vehicle: water
  T/C: 123 % of control
dose: 16.0 mg/kg/injection, schedule: Q01DX007 (ip), vehicle: methylcellulose (MC)
  T/C: 118 % of control
dose: 24.0 mg/kg/injection, schedule: Q01DX007 (ip), vehicle: methylcellulose (MC)
  T/C: 80 % of control
dose: 25.0 mg/kg/injection, schedule: Q01DX007 (ip), vehicle: water
  T/C: 114 % of control
dose: 36.0 mg/kg/injection, schedule: Q01DX007 (ip), vehicle: methylcellulose (MC)
  T/C: 66 % of control
[1]
  T/C: 80 % of control

## CC(=O)OCC(=O)[C@@]1(O)[C@H](C)C[C@H]2[C@@H]3C=C(C)C4=Cc5c(cnn5-c5ccc(F)cc5)C[C@]4(C)[C@H]3[C@@H](O)C[C@@]21C
dose: 0.44 mg/kg/injection, schedule: Q01DX007 (sc), vehicle: steriod suspending solution
  T/C: 108 % of control
dose: 0.66 mg/kg/injection, schedule: Q01DX007 (sc), vehicle: steriod suspending solution
  T/C: 85 % of control
dose: 2.25 mg/kg/injection, schedule: Q01DX007 (sc), vehicle: steriod suspending solution
  T/C: 23 % of control and 34 % of control
dose: 3.38 mg/kg/injection, schedule: Q01DX007 (sc), vehicle: steriod suspending solution
  T/C: 37 % of control and 44 % of control and 62 % of control
dose: 5.07 mg/kg/injection, schedule: Q01DX007 (sc), vehicle: steriod suspending solution
  T/C: 26 % of control and 49 % of control
dose: 7.61 mg/kg/injection, schedule: Q01DX007 (sc), vehicle: steriod suspending solution
  T/C: 24 % of control
dose: 11.42 mg/kg/injection, schedule: Q01DX007 (sc), vehicle: steriod suspending solution
  T/C: 24 % of control

## O=NN(CCCl)C(=O)NCCCl
dose: 1.5 mg/kg/injection, schedule: Q01DX007 (ip), vehicle: saline
  T/C: 27 % of control
dose: 2.6 mg/kg/injection, schedule: Q01DX007 (ip), vehicle: saline
  T/C: 79 % of control
dose: 3.0 mg/kg/injection, schedule: Q01DX007 (ip), vehicle: saline
  T/C: 44 % of control
dose: 3.0 mg/kg/injection, schedule: Q01DX007 (oral), vehicle: carboxymethylcellulose (CMC)
  T/C: 60 % of control
dose: 4.0 mg/kg/injection, schedule: Q01DX007 (ip), vehicle: carboxymethylcellulose (CMC)
  T/C: 75 % of control
dose: 4.3 mg/kg/injection, schedule: Q01DX007 (ip), vehicle: saline
  T/C: 90 % of control
dose: 6.0 mg/kg/injection, schedule: Q01DX007 (ip), vehicle: carboxymethylcellulose (CMC)
  T/C: 46 % of control and 58 % of control
dose: 6.0 mg/kg/injection, schedule: Q01DX007 (ip), vehicle: saline
  T/C: 47 % of control
dose: 6.0 mg/kg/injection, schedule: Q01DX007 (oral), vehicle: carboxymethylcellulose (CMC)
  T/C: 32 % of control
dose: 7.2 mg/kg/injection, schedule: Q01DX007 (ip), vehicle: saline
  T/C: 62 % of control
dose: 8.0 mg/kg/injection, schedule: Q01DX007 (ip), vehicle: carboxymethylcellulose (CMC)
  T/C: 35 % of control
dose: 10.0 mg/kg/injection, schedule: Q01DX007 (ip), vehicle: carboxymethylcellulose (CMC)
  T/C: 27 % of control
dose: 12.0 mg/kg/injection, schedule: Q01DX007 (ip), vehicle: carboxymethylcellulose (CMC)
  T/C: 10 % of control
dose: 12.0 mg/kg/injection, schedule: Q01DX007 (ip), vehicle: saline
  T/C: 36 % of control and 44 % of control
dose: 12.0 mg/kg/injection, schedule: Q01DX007 (oral), vehicle: carboxymethylcellulose (CMC)
  T/C: 12 % of control
dose: 20.0 mg/kg/injection, schedule: Q01DX007 (ip), vehicle: saline
  T/C: 24 % of control
dose: 24.0 mg/kg/injection, schedule: Q01DX007 (oral), vehicle: carboxymethylcellulose (CMC)
  T/C: 6 % of control

Source: PubChem BioAssay AID342 (DTP/NCI, 2004)
